Values of other authors as cited in patent publication US8637495B2, “Osteoarthritis diet formulations” (Nestec S.A., priority 2004, dated 2014).

Columns and labels:
[1] = system: human patients with OA of the knee
[2] = orally administered

radiolabel detected in exhaled CO2 [2]: 70% | retained in tissue [2]: approximately 10% | fraction non-ionized ([2]; physiologic pH of the small intestine): More than 50%
Structure (SMILES): N[C@H]1C(O)O[C@H](CO)[C@@H](O)[C@@H]1O (some centres unmarked) [glucosamine, Glucosamine]
clinical signs of OA ([1]; 1500 mg glucosamine per day, human, OA of the knee): significant improvement | long-term progression of OA ([1]; oral, two studies, patients followed for three years): efficiently inhibited
